Data published in patent publication US20220213126A1, “SMALL MOLECULE AUTOPHAGY INDUCERS FOR THE TREATMENT OF CANCER AND NEURODEGENERATIVE DISEASES” (John Wayne Cancer Institute, priority 2019, published 2022).
Read-outs that look alike come from different tables or passages of the source.

Experiments:
[1] = Metabolic stability in human liver microsomes; type: in vitro ADME; details: for microsomal CLint: human, human liver microsomes
MDA-MB-231 = experiment: TMT quantitative proteomics with Ingenuity Pathway Analysis; type: cell-based; details: 10 μM
Procedure: A global quantitative proteomics approach using multiplexed tandem mass tagged (TMT) isotope labeling technology and shotgun mass spectrometry (Hung et al., Anal. Chem. 84:161-170, 2012) (FIG. 3) was used to quantitate approximately 5,400 proteins. MDA-MB-231 cells were treated with vehicle control (DMSO) or 10 μM VMY-BC-1 for 4 time points. Equal amounts of protein from cell lysates were trypsin digested (Step 1) and labelled with TMT 10-plex reagent (Step 2).

[2] = Brain pharmacokinetics in mice; type: in vivo
Procedure: Pharmacokinetics of VMY-BC-1 in the brain were assessed in mice administered 25 mg/kg VMY-BC-1 p.o. (Table 6).
Free drug fraction in brain and plasma compartment was determined in vitro (Table 7). Brain to plasma (B/P) ratio was also determined in vivo (Table 8).

wild-type C. elegans = experiment: C. elegans lifespan; type: in vivo
Procedure: Synchronized populations of wild-type L1 C. elegans hatched overnight were transferred to agar plates followed by VMY-BC-1 was added freshly from a 5 mM stock to the NGM media. Water was used as control. The L4 population of worms was randomly split to control or treatment groups in a density of about 20-30 worms per 6 cm plate dish.
The first day of adulthood was considered day one. In all the experiments with late-onset administration of VMY-BC-1, synchronized L4 animals were moved to the media supplemented with 5′-fluorodeoxyuridine (FUDR, Cayman chemicals) at a final concentration of 1 μM for 2 days to prevent reproduction, then were moved to FUDR-free NGM plates until the final treatments at day 10. The animals that crawled off the plate, ruptured, or died from internal hatching were censored. Worms were transferred to fresh plates every day after reaching adulthood, and every 2 days after reaching 10 days of age. Prodding test was used to count the number of dead worms. Survival curve was plotted using Prism 7 and the significance of the curves calculated by Log-rank (Mantel-Cox) test.
Synchronized populations of polyQ-expressing C. elegans were grown for 72 hours on media containing 1 μM VMY-BC-1. PolyQ aggegrative vacuoles were detected using confocal microscopy. PolyQ aggregations were decreased compared to vehicle (DMSO) (FIG. 21A). […]

MDA-MB-231 TNBC cells = experiment: Growth of MDA-MB-231 TNBC cells; type: cell-based; details: 1%, 5% or 10% serum
Procedure: FIGS. 2A and 2B are graphs showing the effect of VMY-BC-1 on TNBC cells. […] The percentage of cells crossing the chamber is presented as the mean±SEM. *P<0.05.
Effect of VMY-BC-1 on Triple Negative Breast Cancer Cell Lines A trans-stilbene boronic acid analog, VMY-BC-1, was tested against a TNBC cell line.

CYP2D6 = target: T1, CYP2D6 (Homo sapiens, UniProt P10635); experiment: CYP inhibition in pooled human liver microsomes; type: in vitro ADME
T1 construct: from tissue; host or cells: pooled human liver microsomes

[3] = Normal cell viability, Alamar blue, 72 hours; type: cell-based; details: MRCS, normal cell line
Procedure: (§1) The effect of VMY-BC-1 was tested on a panel of GBM cell lines. […] In this study 100 μM was the highest drug concentration used, with 3-fold dilution for a 10 dose response curve.

NHA = experiment: Normal cell viability, Alamar blue, 72 hours; type: cell-based; details: normal cell line
Procedure: as §1

[4] = system: proteins of MDA-MB-1 cells; experiment: Thermal proteome profiling (TPP) for binding proteins
Procedure: To further elucidate targets that activate the above signaling mechanisms, thermal proteome profiling (TPP) was used to identify binding proteins (Franken et al., Nat. Protoc. 10:1567-1593, 2015; Miettinen et al., EMBO J. 37:e98359, 2018) (FIG. 5A). TPP enables an unbiased assessment of the proteins […] bound to VMY-BC-1 on a proteome-wide scale. Cell lysates were made from MDA-MB-1 cells treated with vehicle or 10 μM VMY-BC-1 for 24 hours. Lysates were heated at different temperatures for 3 minutes in a thermal cycler. Equal amounts of protein were digested, labeled with TMT 10-plex and analyzed by mass spectrometry. The fold-changes in protein abundances were computed relative to the lowest temperature in the temperature set. After a normalization, melting curves were fitted to the fold-changes of each individual protein. The thermal stability of proteins affected by VMY-BC-1 treatment was calculated using the differences between melting points from control for each protein. From the 5,634 proteins screened, 10 target proteins were identified that bound VMY-BC-1: LIMK1, ATM, CDLK5, ULK1, WNK1, PP2C, AK1, IKBKAP, Q53E18, and HDAC1 (FIG. 5B).

[5] = 25 mg/kg single dose P.O., 0.00 h
[6] = 25 mg/kg single dose P.O., 12.00 h
[7] = 25 mg/kg single dose P.O., 24.00 h

T1 sequence (P10635 whole entry): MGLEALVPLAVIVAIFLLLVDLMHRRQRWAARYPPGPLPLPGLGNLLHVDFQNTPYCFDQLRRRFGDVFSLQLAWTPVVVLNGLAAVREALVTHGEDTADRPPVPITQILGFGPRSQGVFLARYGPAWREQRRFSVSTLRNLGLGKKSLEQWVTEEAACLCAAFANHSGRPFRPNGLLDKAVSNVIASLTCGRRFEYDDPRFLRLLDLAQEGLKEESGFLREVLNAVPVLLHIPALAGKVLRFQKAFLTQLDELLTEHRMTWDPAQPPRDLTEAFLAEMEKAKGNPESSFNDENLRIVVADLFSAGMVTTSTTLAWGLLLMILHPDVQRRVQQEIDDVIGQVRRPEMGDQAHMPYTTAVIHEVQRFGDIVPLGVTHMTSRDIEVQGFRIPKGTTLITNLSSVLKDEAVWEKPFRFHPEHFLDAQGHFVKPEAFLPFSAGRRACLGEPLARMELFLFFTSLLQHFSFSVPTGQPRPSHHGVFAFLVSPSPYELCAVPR

For `COc1ccc(/C=C/c2cc(OC)cc(B(O)O)c2)cc1` [VMY-BC-1], the “Remaining at the end of incubation in human liver microsomes” value ([1]; 30 min incubation) was 40%, the microsomal CLint ([1]; Table 3, read-out: Metabolic stability in human liver microsome (CLint)) was 41.3 µL/min/mg and the microsomal CLint ([1]; read-out: Intrinsic clearance in human liver microsomes) was 43 µL/min/mg. The “Pathways altered (Ingenuity Pathway Analysis)” value (MDA-MB-231) was “activation of apoptosis, autophagy, and DNA damage pathways, and inhibition of mTOR1, PI3K, and AKT pathways”, the Mean Brain Concentration [2, 5] was 0 ng/g and the Mean Plasma Concentration [2, 5] was 0 ng/mL. The “Mean Brain Concentration” value ([2]; 25 mg/kg single dose P.O., 0.50 h, in ng/g) was 40017.53, the “Mean Plasma Concentration” value ([2]; 25 mg/kg single dose P.O., 0.50 h, in ng/mL) was 5273.66 and the “Mean Brain Concentration” value ([2]; 25 mg/kg single dose P.O., 1.00 h, in ng/g) was 28802.80. The “Mean Plasma Concentration” value ([2]; 25 mg/kg single dose P.O., 1.00 h, in ng/mL) was 5486.04, the “Mean Brain Concentration” value ([2]; 25 mg/kg single dose P.O., 3.00 h, in ng/g) was 6158.13 and the “Mean Plasma Concentration” value ([2]; 25 mg/kg single dose P.O., 3.00 h, in ng/mL) was 1945.44. The “Mean Brain Concentration” value ([2]; 25 mg/kg single dose P.O., 6.00 h, in ng/g) was 1948.79, the “Mean Plasma Concentration” value ([2]; 25 mg/kg single dose P.O., 6.00 h, in ng/mL) was 889.87 and the Mean Brain Concentration [2, 6] was 0 ng/g. For the same compound, the Mean Plasma Concentration [2, 6] was 0 ng/mL, the Mean Brain Concentration [2, 7] was 0 ng/g and the Mean Plasma Concentration [2, 7] was 0 ng/mL. It also gave an AUCextrap ([2]; Brain, oral 25 mg/kg) of 4.74%, an AUCinf ([2]; Brain, oral 25 mg/kg) of 78032.82 ng·h/g and an AUClast ([2]; Brain, oral 25 mg/kg) of 74330.76 ng·h/g. The AUCextrap ([2]; Plasma, oral 25 mg/kg) was 13.75%, the Kp at 0 h ([2]; mouse, brain and plasma, oral, 25 mg/kg single dose P.O., 0.00 h, read-out: Brain to Plasma Ratio) was 0 and the Kp at 12 h ([2]; mouse, brain and plasma, oral, 25 mg/kg single dose P.O., 12.00 h, read-out: Brain to Plasma Ratio) was 0. For the same compound, the Kp at 24 h ([2]; mouse, brain and plasma, oral, 25 mg/kg single dose P.O., 24.00 h, read-out: Brain to Plasma Ratio) was 0, the Kp ([2]; mouse, brain and plasma, po, 25 mg/kg p.o., read-out: Cmax relative to plasma) was 7 and the Kp at 0.5 h ([2]; mouse, brain and plasma, po, 25 mg/kg single dose P.O., 0.50 h, read-out: Brain to Plasma Ratio) was 7.59. It also gave a Kp at 1 h ([2]; mouse, brain and plasma, po, 25 mg/kg single dose P.O., 1.00 h, read-out: Brain to Plasma Ratio) of 5.25, a Kp at 3 h ([2]; mouse, brain and plasma, po, 25 mg/kg single dose P.O., 3.00 h, read-out: Brain to Plasma Ratio) of 3.17 and a Kp at 6 h ([2]; mouse, brain and plasma, po, 25 mg/kg single dose P.O., 6.00 h, read-out: Brain to Plasma Ratio) of 2.19. For the same compound, the Cmax ([2]; mouse, Brain, oral 25 mg/kg) was 40000 ng/g, the MRT last ([2]; mouse, Brain, oral 25 mg/kg) was 1.48 h and the Tmax ([2]; mouse, Brain, oral 25 mg/kg) was 30 min. It also gave a half-life ([2]; mouse, Brain, oral 25 mg/kg) of 79.2 min, an AUC(0-inf) ([2]; mouse, Plasma, oral 25 mg/kg) of 18200 ng·h/mL and an AUC(0-t) ([2]; mouse, Plasma, oral 25 mg/kg) of 15700 ng·h/mL. The Cmax ([2]; mouse, Plasma, oral 25 mg/kg) was 5490 ng/mL, the MRT last ([2]; mouse, Plasma, oral 25 mg/kg) was 1.96 h and the Tmax ([2]; mouse, Plasma, oral 25 mg/kg) was 60 min. For the same compound, the half-life ([2]; mouse, Plasma, oral 25 mg/kg) was 117 min, the “Maximal median lifespan extension” value (wild-type C. elegans; 1 μM) was roughly 25% and the Lifespan (wild-type C. elegans; 0.1 to 10 μM) was “dose-dependent lifespan extension”. The “Growth of MDA-MB-231 TNBC cells” value (MDA-MB-231 TNBC cells) was “significantly inhibited growth”, the IC50 (CYP2D6) was greater than 100 µM and the IC50 [3] was 35.3 µM. For the same compound, the IC50 (NHA) was 26.5 µM, the “Target proteins identified that bound VMY-BC-1” value ([4]; 10 μM, 24 hours, 5,634 proteins screened) was 10 and the “Fraction of bound protein” value ([4]; of 5,634 proteins screened) was 0.0017 fraction.
